Target: T1, Amine oxidase [flavin-containing] B (Bos taurus, UniProt P56560)
T1 sequence (P56560 whole entry): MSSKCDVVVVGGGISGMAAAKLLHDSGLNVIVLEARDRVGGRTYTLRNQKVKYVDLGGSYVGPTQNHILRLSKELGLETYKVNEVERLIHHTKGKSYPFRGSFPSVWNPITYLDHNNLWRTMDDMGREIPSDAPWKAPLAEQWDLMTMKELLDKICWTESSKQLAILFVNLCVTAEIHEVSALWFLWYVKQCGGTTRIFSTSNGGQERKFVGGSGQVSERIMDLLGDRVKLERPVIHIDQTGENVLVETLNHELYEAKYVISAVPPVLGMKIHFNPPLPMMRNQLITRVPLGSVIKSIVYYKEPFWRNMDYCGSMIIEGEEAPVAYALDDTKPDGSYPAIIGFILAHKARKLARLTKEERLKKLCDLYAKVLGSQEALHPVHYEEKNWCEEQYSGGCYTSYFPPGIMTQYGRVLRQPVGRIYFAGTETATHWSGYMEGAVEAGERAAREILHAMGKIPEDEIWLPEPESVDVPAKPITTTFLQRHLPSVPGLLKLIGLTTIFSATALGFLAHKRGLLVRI
Experiment: Inhibitory activity against Monoamine oxidase B isolated from beef liver mitochondria was determined

In the case of CC[C@]1(O)C[C@@H]2CN(CCc3c([nH]c4ccccc34)[C@@](C(=O)OC)(c3cc4c(cc3OC)N(C)[C@H]3[C@@](O)(C(=O)OC)[C@H](OC(C)=O)[C@]5(CC)C=CCN6CC[C@]43[C@@H]65)C2)C1 [VINBLASTINE], the Ki is reported as 77 µM.
